The record followed here is US8569344B2, “N-piperidinyl acetamide derivatives as calcium channel blockers” (Zalicus Pharmaceuticals Ltd., priority 2008, dated 2013).

Each structure is given as a SMILES string.

In assay [1] the target is T1, human α1G T-type channels (Homo sapiens, UniProt O43497).
T1 construct: expressed in transfected cells; host or cells: HEK 293
In words: T-type calcium channel block, whole cell patch clamp in HEK cells (α1G). Conditions: HEK cells, patch clamp, mainly non-inactivated protocol; values above 10 μM shown as 10 μM, below 0.30 μM shown as 0.30 μM; read-out: T-type Calcium Channel Block α1G IC50. The assay is classed as cell-based. Background: In patch-clamp work, channel activity is measured electrically.

For assay [2], the target named is T2, human α1H T-type channels (Homo sapiens, UniProt O95180).
T2 construct: expressed in transfected cells; host or cells: HEK 293
T2 sequence (O95180 whole entry): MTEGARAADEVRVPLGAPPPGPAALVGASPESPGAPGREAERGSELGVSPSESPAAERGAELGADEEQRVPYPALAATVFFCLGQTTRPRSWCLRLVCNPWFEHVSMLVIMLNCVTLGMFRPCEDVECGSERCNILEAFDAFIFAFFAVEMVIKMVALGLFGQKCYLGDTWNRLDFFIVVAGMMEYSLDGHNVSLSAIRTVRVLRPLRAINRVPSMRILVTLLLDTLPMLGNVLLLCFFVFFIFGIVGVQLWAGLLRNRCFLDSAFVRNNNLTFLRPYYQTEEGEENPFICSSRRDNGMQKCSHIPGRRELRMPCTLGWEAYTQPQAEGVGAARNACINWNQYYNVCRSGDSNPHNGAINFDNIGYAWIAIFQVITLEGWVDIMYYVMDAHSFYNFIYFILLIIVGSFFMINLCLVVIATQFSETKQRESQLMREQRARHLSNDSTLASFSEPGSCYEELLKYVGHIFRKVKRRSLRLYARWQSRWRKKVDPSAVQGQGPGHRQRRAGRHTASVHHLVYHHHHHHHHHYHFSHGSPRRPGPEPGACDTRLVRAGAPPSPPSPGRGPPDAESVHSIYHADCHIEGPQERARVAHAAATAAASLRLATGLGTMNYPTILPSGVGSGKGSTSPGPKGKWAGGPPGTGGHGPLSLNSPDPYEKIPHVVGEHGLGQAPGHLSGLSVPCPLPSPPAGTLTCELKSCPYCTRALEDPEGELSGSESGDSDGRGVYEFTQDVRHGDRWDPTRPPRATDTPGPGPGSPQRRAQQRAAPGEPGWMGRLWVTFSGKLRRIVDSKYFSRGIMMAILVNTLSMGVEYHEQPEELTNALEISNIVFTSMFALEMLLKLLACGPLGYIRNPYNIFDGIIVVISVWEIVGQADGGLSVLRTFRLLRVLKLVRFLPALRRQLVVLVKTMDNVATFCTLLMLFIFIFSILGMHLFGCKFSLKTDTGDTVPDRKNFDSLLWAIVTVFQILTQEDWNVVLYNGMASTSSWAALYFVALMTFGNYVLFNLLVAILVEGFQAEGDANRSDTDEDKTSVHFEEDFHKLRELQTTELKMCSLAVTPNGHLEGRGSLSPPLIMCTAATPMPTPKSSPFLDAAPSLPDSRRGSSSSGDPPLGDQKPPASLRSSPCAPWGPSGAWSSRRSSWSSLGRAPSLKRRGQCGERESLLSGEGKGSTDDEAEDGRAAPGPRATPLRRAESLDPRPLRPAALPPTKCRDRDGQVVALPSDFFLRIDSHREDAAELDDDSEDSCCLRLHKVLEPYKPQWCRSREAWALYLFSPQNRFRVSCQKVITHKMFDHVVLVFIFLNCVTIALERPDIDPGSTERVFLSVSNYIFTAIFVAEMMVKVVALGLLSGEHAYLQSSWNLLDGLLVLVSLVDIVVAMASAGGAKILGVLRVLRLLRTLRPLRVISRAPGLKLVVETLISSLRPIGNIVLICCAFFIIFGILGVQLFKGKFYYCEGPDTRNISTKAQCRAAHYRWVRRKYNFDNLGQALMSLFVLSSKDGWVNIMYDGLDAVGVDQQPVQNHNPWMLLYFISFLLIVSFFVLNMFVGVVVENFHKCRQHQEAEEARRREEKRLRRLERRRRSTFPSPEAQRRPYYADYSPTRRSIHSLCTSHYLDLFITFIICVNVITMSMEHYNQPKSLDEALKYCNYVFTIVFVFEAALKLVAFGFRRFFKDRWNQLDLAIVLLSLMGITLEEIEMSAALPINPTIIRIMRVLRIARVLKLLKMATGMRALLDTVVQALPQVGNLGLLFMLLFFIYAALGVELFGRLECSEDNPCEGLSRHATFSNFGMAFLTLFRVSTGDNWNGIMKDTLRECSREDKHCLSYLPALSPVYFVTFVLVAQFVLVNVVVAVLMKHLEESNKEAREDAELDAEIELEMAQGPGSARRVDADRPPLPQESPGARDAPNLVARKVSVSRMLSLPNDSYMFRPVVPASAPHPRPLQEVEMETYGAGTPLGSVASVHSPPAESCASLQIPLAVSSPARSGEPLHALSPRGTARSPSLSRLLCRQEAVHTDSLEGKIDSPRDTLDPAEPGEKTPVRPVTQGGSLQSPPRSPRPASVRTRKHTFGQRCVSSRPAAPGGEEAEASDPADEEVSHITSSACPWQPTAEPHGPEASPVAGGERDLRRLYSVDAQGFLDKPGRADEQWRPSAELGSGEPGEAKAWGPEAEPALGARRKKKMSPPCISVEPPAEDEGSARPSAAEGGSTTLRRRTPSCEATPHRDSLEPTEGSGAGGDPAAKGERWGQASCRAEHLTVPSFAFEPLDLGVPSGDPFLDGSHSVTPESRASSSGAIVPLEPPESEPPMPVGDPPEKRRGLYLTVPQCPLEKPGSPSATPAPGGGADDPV
The experiment in a line: T-type calcium channel block, whole cell patch clamp in HEK cells (α1H). The assay is classed as cell-based. Conditions: HEK cells, patch clamp, mainly non-inactivated protocol; values above 10 μM shown as 10 μM; read-out: T-type Calcium Channel Block α1H IC50.

T1 sequence (O43497 whole entry): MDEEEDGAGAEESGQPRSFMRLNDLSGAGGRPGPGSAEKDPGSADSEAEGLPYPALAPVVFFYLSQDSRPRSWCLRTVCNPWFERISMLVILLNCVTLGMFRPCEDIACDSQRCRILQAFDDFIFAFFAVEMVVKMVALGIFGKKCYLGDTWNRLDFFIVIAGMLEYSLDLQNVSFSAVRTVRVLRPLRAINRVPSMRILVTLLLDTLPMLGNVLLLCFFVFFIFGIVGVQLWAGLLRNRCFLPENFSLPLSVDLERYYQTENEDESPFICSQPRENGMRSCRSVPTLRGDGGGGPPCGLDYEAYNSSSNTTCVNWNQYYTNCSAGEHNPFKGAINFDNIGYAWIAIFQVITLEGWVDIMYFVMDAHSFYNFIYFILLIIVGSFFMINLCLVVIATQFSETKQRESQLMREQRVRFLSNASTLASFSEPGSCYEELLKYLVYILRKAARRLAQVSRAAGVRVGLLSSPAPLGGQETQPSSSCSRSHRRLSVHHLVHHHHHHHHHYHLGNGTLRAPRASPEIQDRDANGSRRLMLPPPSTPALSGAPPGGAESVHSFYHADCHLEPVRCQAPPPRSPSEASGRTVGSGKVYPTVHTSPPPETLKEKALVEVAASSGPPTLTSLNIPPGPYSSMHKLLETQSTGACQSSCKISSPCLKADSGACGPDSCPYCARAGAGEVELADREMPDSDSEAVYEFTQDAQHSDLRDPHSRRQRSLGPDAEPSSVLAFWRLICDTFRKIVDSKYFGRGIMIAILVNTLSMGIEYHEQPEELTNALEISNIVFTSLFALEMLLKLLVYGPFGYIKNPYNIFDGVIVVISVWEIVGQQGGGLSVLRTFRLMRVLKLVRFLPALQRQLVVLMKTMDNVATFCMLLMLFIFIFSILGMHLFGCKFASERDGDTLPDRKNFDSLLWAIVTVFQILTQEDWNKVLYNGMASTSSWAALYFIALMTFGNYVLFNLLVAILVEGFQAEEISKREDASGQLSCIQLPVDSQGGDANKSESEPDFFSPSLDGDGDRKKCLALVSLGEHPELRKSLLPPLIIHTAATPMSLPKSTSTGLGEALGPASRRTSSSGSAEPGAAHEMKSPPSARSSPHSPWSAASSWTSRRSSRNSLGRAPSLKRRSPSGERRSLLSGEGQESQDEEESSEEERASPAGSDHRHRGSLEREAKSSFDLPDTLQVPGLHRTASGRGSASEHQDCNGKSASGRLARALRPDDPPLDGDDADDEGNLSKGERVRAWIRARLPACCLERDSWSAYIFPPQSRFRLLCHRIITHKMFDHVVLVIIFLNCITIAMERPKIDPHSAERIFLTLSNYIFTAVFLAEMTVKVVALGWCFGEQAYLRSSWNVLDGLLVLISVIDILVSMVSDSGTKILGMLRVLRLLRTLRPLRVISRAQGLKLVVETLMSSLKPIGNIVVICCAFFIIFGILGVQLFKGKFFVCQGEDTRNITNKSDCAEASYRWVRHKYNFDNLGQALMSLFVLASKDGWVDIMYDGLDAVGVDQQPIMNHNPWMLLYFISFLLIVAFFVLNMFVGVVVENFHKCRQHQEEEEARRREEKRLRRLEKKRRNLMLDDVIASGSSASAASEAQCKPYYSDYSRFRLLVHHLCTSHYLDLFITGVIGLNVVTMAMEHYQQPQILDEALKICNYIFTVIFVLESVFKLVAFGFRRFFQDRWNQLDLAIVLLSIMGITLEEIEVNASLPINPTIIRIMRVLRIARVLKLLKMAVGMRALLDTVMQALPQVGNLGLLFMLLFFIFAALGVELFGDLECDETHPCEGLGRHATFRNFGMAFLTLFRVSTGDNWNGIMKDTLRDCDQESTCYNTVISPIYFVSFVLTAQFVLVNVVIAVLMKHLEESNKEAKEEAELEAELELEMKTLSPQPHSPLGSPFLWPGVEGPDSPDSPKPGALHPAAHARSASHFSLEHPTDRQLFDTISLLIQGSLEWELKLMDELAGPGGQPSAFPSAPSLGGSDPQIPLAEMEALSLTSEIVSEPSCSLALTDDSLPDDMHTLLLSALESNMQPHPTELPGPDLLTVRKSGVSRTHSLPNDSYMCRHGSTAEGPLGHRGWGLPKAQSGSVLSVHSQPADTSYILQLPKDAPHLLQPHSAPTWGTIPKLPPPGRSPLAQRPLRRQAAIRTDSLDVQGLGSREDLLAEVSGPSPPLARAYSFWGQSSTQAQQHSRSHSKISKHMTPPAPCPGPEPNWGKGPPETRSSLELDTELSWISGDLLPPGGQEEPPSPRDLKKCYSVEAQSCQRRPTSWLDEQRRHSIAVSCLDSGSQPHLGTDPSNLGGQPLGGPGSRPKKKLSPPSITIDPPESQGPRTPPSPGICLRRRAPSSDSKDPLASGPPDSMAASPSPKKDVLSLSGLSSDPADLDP

A word on the IC50: it is the point on the concentration scale where inhibition reaches its midpoint. As to `COc1cc(F)cc(C(=O)NCC2CCN(CC(=O)NC3CCCC3)CC2)c1` [Compound 532, N-((1-(2-(cyclopentylamino)-2-oxoethyl)piperidin-4-yl)methyl)-3-fluoro-5-methoxybenzamide], the IC50 in assay [1] was < 300 nM; in assay [2] it was 130 nM.

Regarding `CCCNC(=O)CN1CCC(CNC(=O)c2cc(C(F)(F)F)cc(C(F)(F)F)c2)CC1` [Compound 345, N-((1-(2-oxo-2-(propylamino)ethyl)piperidin-4-yl)methyl)-3,5-bis(trifluoromethyl)benzamide], the IC50 in assay [1] was < 300 nM; in assay [2] it was 110 nM.

On to `CC1CCCCC1NCC(=O)N1CCC(CNC(=O)c2cc(F)cc(C(F)(F)F)c2)CC1` (stereo not drawn) [Compound 274, 3-fluoro-N-((1-(2-(2-methylcyclohexylamino)acetyl)piperidin-4-yl)methyl)-5-(trifluoromethyl)benzamide], for which the figures for the IC50 in assay [1] and in assay [2] were < 300 nM and 660 nM, respectively.

As to `CC(C)(F)C(=O)NCCN1CCC(CNC(=O)c2cc(F)cc(C(F)(F)F)c2)CC1` [Compound 336, 3-fluoro-N-((1-(2-(2-fluoro-2-methylpropanamido)ethyl)piperidin-4-yl)methyl)-5-(trifluoromethyl)benzamide], the IC50 in assay [1] was 1750 nM; in assay [2], 1160 nM.

For `O=C(NCC1CCN(C(=O)CNC2CCCC2)CC1)c1cc(C(F)(F)F)cc(C(F)(F)F)c1` [Compound 247, N-((1-(2-(cyclopentylamino)acetyl)piperidin-4-yl)methyl)-3,5-bis(trifluoromethyl)benzamide], the IC50 in assay [1] was < 300 nM; in assay [2] it was 500 nM.

On to `COCC(C)(C)NC(=O)CN1CCC(CNC(=O)c2cc(F)cc(C(F)(F)F)c2)CC1` [Compound 564, 3-fluoro-N-((1-(2-(1-methoxy-2-methylpropan-2-ylamino)-2-oxoethyl)piperidin-4-yl)methyl)-5-(trifluoromethyl)benzamide], for which the IC50 is < 300 nM in assay [1] and 100 nM in assay [2].

Turning to `O=C(NCC1CCN(CCNS(=O)(=O)C(F)(F)F)CC1)c1cc(C(F)(F)F)cc(C(F)(F)F)c1` [Compound 21, 3,5-bis(trifluoromethyl)-N-((1-(2-(trifluoromethylsulfonamido)ethyl)piperidin-4-yl)methyl)benzamide], the IC50 in assay [1] was determined as 3660 nM; in assay [2], 590 nM.

For `CC(C)(C)NC(=O)CN1CCC(CNC(=O)c2cc(Cl)cc(Br)c2)CC1` [Compound 381, 3-bromo-N-((1-(2-(tert-butylamino)-2-oxoethyl)piperidin-4-yl)methyl)-5-chlorobenzamide], the IC50 is < 300 nM in assay [1] and 80 nM in assay [2].

Turning to `CC(C)(C)C(=O)NCCN1CCC(CNC(=O)c2cc(F)cc(C(F)(F)F)c2)CC1` [Compound 294, 3-fluoro-N-((1-(2-pivalamidoethyl)piperidin-4-yl)methyl)-5-(trifluoromethyl)benzamide], the IC50 in assay [1] came to 570 nM; in assay [2] it was 810 nM.

As to `CC(C)(C(=O)NCCN1CCC(CNC(=O)c2cccc(Cl)c2)CC1)C(F)(F)F` [Compound 494, 3-chloro-N-((1-(2-(3,3,3-trifluoro-2,2-dimethylpropanamido)ethyl)piperidin-4-yl)methyl)benzamide], the IC50 in assay [1] is < 300 nM; in assay [2] it was 160 nM.

For `Cc1cc(C)cc(C(=O)NCC2CCN(CCNC(=O)C3(C(F)(F)F)CC3)CC2)c1` [Compound 497, 3,5-dimethyl-N-((1-(2-(1-(trifluoromethyl)cyclopropanecarbox-amido)ethyl)piperidin-4-yl)methyl) benzamide], the IC50 in assay [1] is 770 nM; in assay [2], 160 nM.

In the case of `COc1cc(Cl)cc(C(=O)NCC2CCN(CCNS(=O)(=O)C3CC3)CC2)c1` [Compound 322, 3-chloro-N-((1-(2-(cyclopropanesulfonamido)ethyl)piperidin-4-yl)methyl)-5-methoxybenzamide], the IC50 in assay [1] was found to be 4050 nM; in assay [2] it was 2140 nM.

On to `CCOC1CCN(C(=O)CN2CCC(CNC(=O)c3cc(C(F)(F)F)cc(C(F)(F)F)c3)CC2)CC1` [Compound 305, N-((1-(2-(4-ethoxypiperidin-1-yl)-2-oxoethyl)piperidin-4-yl)methyl)-3,5-bis(trifluoromethyl)benzamide], for which the IC50 in assay [1] was 7420 nM; in assay [2], 4450 nM.

Take `O=C(NCC1CCN(CCNS(=O)(=O)C2CC2)CC1)c1ccc(OC(F)(F)F)cc1` [Compound 232, N-((1-(2-(cyclopropanesulfonamido)ethyl)piperidin-4-yl)methyl)-4-(trifluoromethoxy)benzamide]: the IC50 in assay [1] turned out to be 5010 nM; in assay [2] it was 2870 nM.

Take `COCC(COC)NC(=O)CN1CCC(CNC(=O)c2cc(C(F)(F)F)cc(C(F)(F)F)c2)CC1` [Compound 347, N-((1-(2-(1,3-dimethoxypropan-2-ylamino)-2-oxoethyl)piperidin-4-yl)methyl)-3,5-bis(trifluoromethyl) benzamide]: the values for the IC50 in assay [1] and in assay [2] were < 300 nM and 240 nM, respectively.

Consider `CC(C(=O)NC1CCCC1)N1CCC(CNC(=O)c2cc(F)cc(Cl)c2)CC1` (stereo not drawn) [Compound 549, 3-chloro-N-((1-(1-(cyclopentylamino)-1-oxopropan-2-yl)piperidin-4-yl)methyl)-5-fluorobenzamide], for which the values for the IC50 in assay [1] and in assay [2] were < 300 nM and 110 nM, respectively.

Turning to `O=C(NCC1CCN(CCNS(=O)(=O)C(F)(F)F)CC1)c1cc(Br)cc(Br)c1` [Compound 388, 3,5-dibromo-N-((1-(2-(trifluoromethylsulfonamido)ethyl)piperidin-4-yl)methyl)benzamide], the IC50 in assay [1] is < 300 nM; in assay [2], 160 nM.

With `O=C(NCC1CCN(C(=O)CN2CCC(F)(F)C2)CC1)c1cc(C(F)(F)F)cc(C(F)(F)F)c1` [Compound 226, N-((1-(2-(3,3-difluoropyrrolidin-1-yl)acetyl)piperidin-4-yl)methyl)-3,5-bis(trifluoromethyl)benzamide], the IC50 in assay [1] and in assay [2] was > 10000 nM each time.

Take `CC(C(=O)NC(C)(C)C)N1CCC(CNC(=O)c2cc(F)cc(Cl)c2)CC1` (stereo not drawn) [Compound 546, N-((1-(1-(tert-butylamino)-1-oxo-propan-2-yl)piperidin-4-yl)methyl)-3-chloro-5-fluorobenzamide]: the results for the concentration for half-maximal inhibition (IC50) in assay [1] and in assay [2] were < 300 nM and 130 nM, respectively.

In the case of `O=C(NCC1CCN(CCNC(=O)C2(C(F)(F)F)CCCC2)CC1)c1cc(F)cc(C(F)(F)F)c1` [Compound 341, 3-fluoro-5-(trifluoromethyl)-N-((1-(2-(1-(trifluoromethyl)cyclopentanecarbox-amido)ethyl)piperidin-4-yl)methyl) benzamide], the concentration for half-maximal inhibition (IC50) was < 300 nM in assay [1] and 120 nM in assay [2].

As to `COC1CCN(CC(=O)N2CCC(CNC(=O)c3cc(C(F)(F)F)cc(C(F)(F)F)c3)CC2)CC1` [Compound 251, N-((1-(2-(4-methoxypiperidin-1-yl)acetyl)piperidin-4-yl)methyl)-3,5-bis(trifluoromethyl)benzamide], the IC50 in assay [1] and in assay [2] was > 10000 nM throughout.

For the compound `O=C(CC1CCN(C(=O)[C@@H]2CCCCN2)CC1)Nc1cc(C(F)(F)F)cc(C(F)(F)F)c1` [Compound 195, (S)-N-(3,5-bis(trifluoromethyl)phenyl)-2-(1-(piperidine-2-carbonyl)piperidin-4-yl)acetamide], the IC50 in assay [1] was determined as 4780 nM; in assay [2] it was 1970 nM.

Regarding `CC(C)(C)C(=O)NCCN1CCC(CNC(=O)c2cc(F)cc(Cl)c2)CC1` [Compound 309, 3-chloro-5-fluoro-N-((1-(2-pivalamidoethyl)piperidin-4-yl)methyl)benzamide], the IC50 was 850 nM in assay [1] and 350 nM in assay [2].

On to `CCC1CCCCN1CC(=O)N1CCC(CNC(=O)c2cc(C(F)(F)F)cc(C(F)(F)F)c2)CC1` (stereo not drawn) [Compound 243, N-((1-(2-(2-ethylpiperidin-1-yl)acetyl)piperidin-4-yl)methyl)-3,5-bis(trifluoromethyl)benzamide], for which the IC50 in assay [1] was determined as 530 nM; in assay [2], 810 nM.

Regarding `CC(C)S(=O)(=O)NCCN1CCC(CNC(=O)c2cc(Br)cc(Br)c2)CC1` [Compound 319, 3,5-dibromo-N-((1-(2-(1-methylethylsulfonamido)ethyl)piperidin-4-yl)methyl)benzamide], the IC50 in assay [1] is < 300 nM; in assay [2], 150 nM.

As for `Cc1cc(F)cc(C(=O)NCC2CCN(CCNS(=O)(=O)C(C)(C)C)CC2)c1` [Compound 575, N-((1-(2-(1,1-dimethylethylsulfonamido)ethyl)piperidin-4-yl)methyl)-3-fluoro-5-methylbenzamide], the IC50 in assay [1] was determined as 1250 nM; in assay [2] it was 1040 nM.

`Cc1cc(C)cc(C(=O)NCC2CCN(CC(=O)N(C)C(C)(C)C)CC2)c1` [Compound 539, N-((1-(2-(tert-butyl(methyl)amino)-2-oxoethyl)piperidin-4-yl)methyl)-3,5-dimethylbenzamide]: the IC50 in assay [1] amounted to 1680 nM; in assay [2], 510 nM.

Consider `CC(C)S(=O)(=O)NCCN1CCC(CNC(=O)c2cccc(Br)c2)CC1` [Compound 386, 3-bromo-N-((1-(2-(1-methylethylsulfonamido)ethyl)piperidin-4-yl)methyl)benzamide], for which the values for the IC50 in assay [1] and in assay [2] were 870 nM and 490 nM, respectively.

As to `CC(C)(C(=O)NCCN1CCC(CNC(=O)c2cc(C(F)(F)F)cc(C(F)(F)F)c2)CC1)C(F)(F)F` [Compound 338, N-((1-(2-(3,3,3-trifluoro-2,2-dimethylpropanamido)ethyl)piperidin-4-yl)methyl)-3,5-bis(trifluoromethyl) benzamide], the IC50 in assay [1] is < 300 nM; in assay [2] it was 160 nM.

With `COc1cc(F)cc(C(=O)NCC2CCN(CC(=O)N3CCC[C@H]3C(F)(F)F)CC2)c1` [Compound 465, (S)-3-fluoro-5-methoxy-N-((1-(2-oxo-2-(2-(trifluoromethyl)pyrrolidin-1-yl)ethyl)piperidin-4-yl)methyl)benzamide], the IC50 in assay [1] is < 300 nM; in assay [2], 170 nM.
